Values of other authors, collected in publication PMC5742115, “Pharmacophore Modeling and in Silico/in Vitro Screening for Human Cytochrome P450 11B1 and Cytochrome P450 11B2 Inhibitors” (Frontiers in Chemistry, 2017).
Where two headings read alike, the source gives them in different places.

Tests used:
CYP11B1 = conditions: reported activity, supplementary Table 1, read-out: CYP11B1 IC50, cited from earlier work
CYP11B2 = conditions: reported activity, supplementary Table 1, read-out: CYP11B2 IC50, cited from earlier work

SMILES | IC50 (CYP11B1; ref Heim et al., 2008) | IC50 (CYP11B2; ref Heim et al., 2008) | IC50 (CYP11B1; ref Lucas et al., 2008b) | IC50 (CYP11B2; ref Lucas et al., 2008b) | other results
Fc1ccc2c(c1)CC/C2=C/c1cccnc1 [CHEMBL383806] | – | – | – | – | IC50 (CYP11B1; ref Ulmschneider et al., 2005a): 125 nM; IC50 (CYP11B2; ref Ulmschneider et al., 2005a): 11 nM
Clc1ccc2c(c1)CC/C2=C\c1cccnc1 [CHEMBL383807] | – | – | – | – | IC50 (CYP11B1; ref Ulmschneider et al., 2005a): 1470 nM; IC50 (CYP11B2; ref Ulmschneider et al., 2005a): 26 nM
c1ccc(-c2csc(Cn3ccnc3)c2)cc1 [CHEMBL403598] | – | – | – | – | IC50 (CYP11B1; ref Hille et al., 2011b): 19 nM; IC50 (CYP11B2; ref Hille et al., 2011b): 277 nM
Fc1ccc2c(c1)CC/C2=C\c1ccncc1 [CHEMBL424960] | – | – | – | – | IC50 (CYP11B1; ref Ulmschneider et al., 2005a): 1100 nM; IC50 (CYP11B2; ref Ulmschneider et al., 2005a): 15 nM
CCOc1ccc2c(c1)CC/C2=C\c1cccnc1 [CHEMBL425323] | – | – | – | – | IC50 (CYP11B1; ref Ulmschneider et al., 2005a): 2370 nM; IC50 (CYP11B2; ref Ulmschneider et al., 2005a): 79 nM
COC(=O)c1ccc2cc(-c3cccnc3)ccc2c1 [CHEMBL438802] | – | – | – | – | IC50 (CYP11B1; ref Voets et al., 2005): 10500 nM; IC50 (CYP11B2; ref Voets et al., 2005): 72 nM
CCOc1cncc(-c2ccc3cc(OC)ccc3c2)c1 [CHEMBL445259] | 373 nM | 5.1 nM | – | – | –
CN1C(=O)CCc2cc(-c3cccnc3)ccc21 [CHEMBL446083] | – | – | 742 nM | 2.6 nM | –
COc1cncc(-c2ccc3cc(OC)ccc3c2)c1 [CHEMBL447591] | 238 nM | 4.2 nM | – | – | –
COc1ccc2cc(-c3cncc(CO)c3)ccc2c1 [CHEMBL448064] | 614 nM | 9.1 nM | – | – | –
COc1ccc2cc(-c3cnccc3CO)ccc2c1 [CHEMBL449894] | 1760 nM | 22 nM | – | – | –
CN1C(=O)CCc2cc(-c3cncc4ccccc34)ccc21 [CHEMBL451505] | – | – | 6.9 nM | 0.1 nM | –
COc1ccc2cc(-c3cnccc3N)ccc2c1 [CHEMBL453169] | 1520 nM | 13 nM | – | – | –
O=C1CCc2cc(-c3cncc4ccccc34)ccc2N1 [CHEMBL456390] | – | – | 33 nM | 0.2 nM | –
CCN1C(=O)CCc2cc(-c3cccnc3)ccc21 [CHEMBL457425] | – | – | 5180 nM | 22 nM | –
O=C1CCc2cc(-c3cccnc3)cc(Cl)c2N1 [CHEMBL457640] | – | – | 1670 nM | 3.8 nM | –
COc1cncc(-c2ccc3c(c2)CCC(=O)N3)c1 [CHEMBL457646] | – | – | 339 nM | 2.7 nM | –
COc1cncc(-c2ccc3c(c2)CCC(=O)N3C)c1 [CHEMBL457856] | – | – | 87 nM | 0.2 nM | –
COC1CCc2cc(-c3cccnc3)ccc2C1 (stereo not drawn) [CHEMBL460178] | – | – | 1140 nM | 3.3 nM | –
c1cncc(-c2ccc3c(c2)CCCC3)c1 [CHEMBL461457] | – | – | 1980 nM | 29 nM | –

SMILES | IC50 (CYP11B1; ref Heim et al., 2008) | IC50 (CYP11B2; ref Heim et al., 2008) | IC50 (CYP11B1; ref Lucas et al., 2008b) | IC50 (CYP11B2; ref Lucas et al., 2008b) | other results
OC1CCc2cc(-c3cccnc3)ccc2C1 (stereo not drawn) [CHEMBL461458] | – | – | 4920 nM | 44 nM | –
N#CC1=Cc2ccc(-c3cccnc3)cc2CC1 [CHEMBL461884] | – | – | 290 nM | 1.6 nM | –
O=C1CCc2cc(-c3cccnc3)ccc2C1 [CHEMBL462093] | – | – | 3960 nM | 7.8 nM | –
c1ccc(Cn2cncc2-c2ccccc2)cc1 [CHEMBL463582] | – | – | – | – | IC50 (CYP11B1; ref Roumen et al., 2010): 4.8 nM; IC50 (CYP11B2; ref Roumen et al., 2010): 11 nM
COc1cncc(-c2ccc3c(c2)CCC(=O)C3)c1 [CHEMBL499007] | – | – | 191 nM | 1.8 nM | –
COc1ccc2c(c1)CC(C)C(c1cncc3ccccc13)=C2 (stereo not drawn) [CHEMBL499044] | 64 nM | 0.5 nM | – | – | –
COc1ccc2cc(-c3cccnc3)c(C)cc2c1 [CHEMBL499871] | 1050 nM | 7 nM | – | – | –
COc1cncc(C2=Cc3ccc(OC)cc3CC2C)c1 (stereo not drawn) [CHEMBL500145] | 100 nM | 1.2 nM | – | – | –
COC(=O)c1cncc(-c2ccc3cc(OC)ccc3c2)c1 [CHEMBL500146] | 15 nM | 0.8 nM | – | – | –
COc1ccc2cc(-c3cncc(C(C)OC)c3)ccc2c1 (stereo not drawn) [CHEMBL500392] | 10 nM | 0.2 nM | – | – | –
COc1ccc2cc(-c3cncc(-c4ccccc4)c3)ccc2c1 [CHEMBL500393] | 151 nM | 4.8 nM | – | – | –
COc1ccc2cc(-c3cncc4ccccc34)ccc2c1 [CHEMBL500394] | 67 nM | 0.6 nM | – | – | –
COc1ccc2cc(-c3cncc(C(C)O)c3)ccc2c1 (stereo not drawn) [CHEMBL500395] | 99 nM | 0.5 nM | – | – | –
COCc1cncc(-c2ccc3cc(OC)ccc3c2)c1 [CHEMBL500421] | 31 nM | 0.2 nM | – | – | –
COc1ccc2cc(-c3cncc(O)c3)ccc2c1 [CHEMBL500636] | 8920 nM | 94 nM | – | – | –
N#Cc1ccc2c(c1)CCC(c1cccnc1)=C2 [CHEMBL500663] | 461 nM | 4.5 nM | – | – | –
COc1ccc2cc(-c3cnccc3C)ccc2c1 [CHEMBL500664] | 114 nM | 0.8 nM | – | – | –
Cc1ccncc1-c1ccc2cc(C#N)ccc2c1 [CHEMBL500665] | 52 nM | 0.6 nM | – | – | –
COCc1ccncc1-c1ccc2cc(OC)ccc2c1 [CHEMBL500676] | 435 nM | 2.2 nM | – | – | –
